Results published in ChEMBL document CHEMBL1146381, “Synthesis, stereochemistry and antimicrobial evaluation of t(3)-benzyl-r(2),c(6)-diarylpiperidin-4-one and its derivatives” (2007).
In brackets after ≈: the same amount, converted by molar mass.

How the values were obtained:
Type in all cases: functional
Bacillus subtilis = assay: Antibacterial activity against Bacillus subtilis
Klebsiella pneumoniae = assay: Antibacterial activity against Klebsiella pneumoniae
Candida [1] = assay: Antifungal activity against Candida 6
Candida [2] = assay: Antifungal activity against Candida 51
Escherichia coli = assay: Antibacterial activity against Escherichia coli
Pseudomonas aeruginosa = assay: Antibacterial activity against Pseudomonas aeruginosa
Enterococcus faecalis = assay: Antibacterial activity against Streptococcus faecalis
Cryptococcus neoformans = assay: Antifungal activity against Cryptococcus neoformans
Aspergillus flavus = assay: Antifungal activity against Aspergillus flavus
Aspergillus niger = assay: Antifungal activity against Aspergillus niger

| MIC (Bacillus subtilis) [µg/mL] | MIC (Klebsiella pneumoniae) [µg/mL] | MIC (Candida [1]) [µg/mL] | MIC (Candida [2]) [µg/mL] | MIC (Escherichia coli) [µg/mL] | MIC (Pseudomonas aeruginosa) [µg/mL] | MIC (Enterococcus faecalis) [µg/mL] | MIC (Cryptococcus neoformans) [µg/mL] | MIC (Aspergillus flavus) [µg/mL] | MIC (Aspergillus niger) [µg/mL] | Compound |
| --- | --- | --- | --- | --- | --- | --- | --- | --- | --- | --- |
| 50 (≈ 156 µM) | 12.5 (≈ 38.9 µM) | 25 (≈ 77.8 µM) | 25 (≈ 77.8 µM) | 12.5 (≈ 38.9 µM) | 25 (≈ 77.8 µM) | 12.5 (≈ 38.9 µM) | 25 (≈ 77.8 µM) | 50 (≈ 156 µM) | 50 (≈ 156 µM) | O=C1CC(c2ccco2)NC(c2ccco2)C1Cc1ccccc1 (stereo not drawn) |
| 25 (≈ 74.3 µM) | 6.25 (≈ 18.6 µM) | 25 (≈ 74.3 µM) | 12.5 (≈ 37.2 µM) | 12.5 (≈ 37.2 µM) | 12.5 (≈ 37.2 µM) | 12.5 (≈ 37.2 µM) | 6.25 (≈ 18.6 µM) | 25 (≈ 74.3 µM) | 6.25 (≈ 18.6 µM) | O/N=C1\CC(c2ccco2)NC(c2ccco2)C1Cc1ccccc1 (stereo not drawn) |
| 12.5 (≈ 36.6 µM) | 100 (≈ 293 µM) | 50 (≈ 146 µM) | 50 (≈ 146 µM) | 12.5 (≈ 36.6 µM) | – | 50 (≈ 146 µM) | – | 50 (≈ 146 µM) | 100 (≈ 293 µM) | O=C1CC(c2ccccc2)NC(c2ccccc2)C1Cc1ccccc1 (stereo not drawn) |
| 25 (≈ 70.1 µM) | 12.5 (≈ 35.1 µM) | 50 (≈ 140 µM) | 12.5 (≈ 35.1 µM) | 12.5 (≈ 35.1 µM) | 25 (≈ 70.1 µM) | 25 (≈ 70.1 µM) | 25 (≈ 70.1 µM) | 50 (≈ 140 µM) | 100 (≈ 281 µM) | O/N=C1\CC(c2ccccc2)NC(c2ccccc2)C1Cc1ccccc1 (stereo not drawn) |
| 25 (≈ 67.7 µM) | 6.25 (≈ 16.9 µM) | 25 (≈ 67.7 µM) | 12.5 (≈ 33.8 µM) | 25 (≈ 67.7 µM) | 12.5 (≈ 33.8 µM) | 25 (≈ 67.7 µM) | 12.5 (≈ 33.8 µM) | 25 (≈ 67.7 µM) | 50 (≈ 135 µM) | O=CN1C(c2ccccc2)CC(=O)C(Cc2ccccc2)C1c1ccccc1 (stereo not drawn) |
| 25 (≈ 65 µM) | 6.25 (≈ 16.3 µM) | 12.5 (≈ 32.5 µM) | 12.5 (≈ 32.5 µM) | 25 (≈ 65 µM) | 50 (≈ 130 µM) | 25 (≈ 65 µM) | 6.25 (≈ 16.3 µM) | 12.5 (≈ 32.5 µM) | 25 (≈ 65 µM) | O=CN1C(c2ccccc2)C/C(=N\O)C(Cc2ccccc2)C1c1ccccc1 (stereo not drawn) |

| Compound | MIC (Bacillus subtilis) [µg/mL] | MIC (Klebsiella pneumoniae) [µg/mL] | MIC (Candida [1]) [µg/mL] | MIC (Candida [2]) [µg/mL] | MIC (Escherichia coli) [µg/mL] | MIC (Pseudomonas aeruginosa) [µg/mL] | MIC (Enterococcus faecalis) [µg/mL] | MIC (Cryptococcus neoformans) [µg/mL] | MIC (Aspergillus flavus) [µg/mL] | MIC (Aspergillus niger) [µg/mL] |
| --- | --- | --- | --- | --- | --- | --- | --- | --- | --- | --- |
| C[C@@H]1[C@H](O)[C@@H](C)/C=C/C=C/C=C/C=C/C=C/C=C/C=C/[C@H](O[C@@H]2O[C@H](C)[C@@H](O)[C@H](N)[C@@H]2O)C[C@@H]2O[C@](O)(C[C@@H](O)C[C@@H](O)[C@H](O)CC[C@@H](O)C[C@@H](O)CC(=O)O[C@H]1C)C[C@H](O)[C@H]2C(=O)O [AMPHOTERICIN B] | – | – | 25 (≈ 27.1 µM) | 25 (≈ 27.1 µM) | – | – | – | 25 (≈ 27.1 µM) | 50 (≈ 54.1 µM) | 50 (≈ 54.1 µM) |
| CN[C@@H]1[C@H](O[C@H]2[C@H](O[C@H]3[C@H](O)[C@@H](O)[C@H](N=C(N)N)[C@@H](O)[C@@H]3N=C(N)N)O[C@@H](C)[C@]2(O)C=O)O[C@@H](CO)[C@H](O)[C@H]1O [STREPTOMYCIN] | 12.5 (≈ 21.5 µM) | 25 (≈ 43 µM) | – | – | 12.5 (≈ 21.5 µM) | 25 (≈ 43 µM) | 50 (≈ 86 µM) | – | – | – |
